Assay results: patent US9351974B2, “Substituted pteridinones for the treatment of cancer” (OSI Pharmaceuticals, LLC, priority 2011, dated 2016)

Experiments:
[1] = molecular target: T1, His-tagged full-length RSK2 (RPS6KA3) (Homo sapiens, UniProt P51812); experiment: RSK2 Omnia Assay for compound IC50 determination; type: biochemical; conditions: ATP 15 μM, n=2, read-out: Mean RSK2 Biochem IC50
T1 construct: His-tagged full-length RSK2 (RPS6KA3, Invitrogen PV3323); His; purchased Invitrogen PV3323
In short: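 Initial-rate slopes from continuous kinetic reads were fitted to a four-parameter equation for IC50 (n=2). Ki was then derived by Cheng-Prusoff assuming ATP-competitive inhibition. Reactions contained 15 μM ATP (Km 16.3 μM), 5 μM Omnia ST Peptide 6, and […] in 50 mM HEPES pH 7.5, 10 mM MgCl2, 1 mM DTT, 1% DMSO. Compounds spanned 11 threefold steps, […] final.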

[2] = molecular target: T2, His-tagged full length RSK1 (RPS6KA1) (Homo sapiens, UniProt Q15418); experiment: RSK1 Omnia Assay for compound IC50 determination; type: biochemical; conditions: ATP 15 μM, n=2, read-out: Mean RSK1 Biochem IC50
T2 construct: His-tagged full length RSK1 (RPS6KA1, Millipore 14-509); His; purchased Millipore 14-509
Protocol: RSK1 & RSK2 Omnia Assay Protocol for Compound IC50 Determination
The Omnia Assay (Invitrogen) has been optimized for His-tagged full length RSK1 (RPS6KA1, Millipore 14-509) and for His-tagged full-length RSK2 (RPS6KA3, Invitrogen PV3323). In this assay system, Omnia ST Peptide 6 (Invitrogen KNZ1061) functions as a substrate for RSK1 or RSK2. Phosphorylation of this SOX-containing peptide results in an increase in fluorescence at 485 nm upon excitation at 360 nm.
Assays are carried out in 384-well OptiPlates (Perkin Elmer 6007290) in a total volume of 20 μL containing RSK1 ([…]) or RSK2 ([…]), Omnia ST Peptide 6 (5 μM), ATP (15 μM, Km=16.3 μM), and test compound (variable) in RSK assay buffer (50 mM HEPES, pH 7.5, 10 mM MgCl2, 0.01% Tween-20, 1% glycerol, 1 mM DTT, 1 mM EGTA, 0.01% BSA) with 1% DMSO.
IC50s for test compounds are typically determined using an 11-point three-fold serial dilution with a final assay concentration ranging either from 170 μM to […] or from 17 μM to […]. All compound concentrations are assayed in duplicate. Initial compound dilutions are prepared at 100× concentration in 100% DMSO from a 10 mM stock solution. Compounds are further diluted 1:25 in assay buffer resulting in a 4× concentrated solution.
To run the assay 5 μL of the above 4× concentrated compound solution (or 4% DMSO for positive controls) is added to the assay plate followed by 5 μL of a solution containing peptide (20 μM) and ATP (60 μM) in assay buffer. The reaction is initiated by the addition of 10 μL of RSK1 ([…]) or RSK2 ([…]) in assay buffer, or assay buffer alone for negative controls. The increase in fluorescence due to peptide phosphorylation is monitored continuously as a function of time using a Spectramax M5 plate reader (Molecular Devices) equipped with SoftMax Pro software.
The slopes from the linear portion of progress curves are used to determine IC50 values by non-linear curve-fitting to a four-parameter equation using GraphPad Prism (GraphPad Software, Inc.) or XLFit (IDBS). IC50's are determined in duplicate (n=2) and Ki values are calculated from IC50 values using the Cheng-Prusoff equation assuming a competitive mode of inhibition.

RSK1-4 = conditions: G. P. Sapkota et al., Biochem J., 401, 29-38 (2007); cited from earlier work

T1 sequence (P51812 whole entry): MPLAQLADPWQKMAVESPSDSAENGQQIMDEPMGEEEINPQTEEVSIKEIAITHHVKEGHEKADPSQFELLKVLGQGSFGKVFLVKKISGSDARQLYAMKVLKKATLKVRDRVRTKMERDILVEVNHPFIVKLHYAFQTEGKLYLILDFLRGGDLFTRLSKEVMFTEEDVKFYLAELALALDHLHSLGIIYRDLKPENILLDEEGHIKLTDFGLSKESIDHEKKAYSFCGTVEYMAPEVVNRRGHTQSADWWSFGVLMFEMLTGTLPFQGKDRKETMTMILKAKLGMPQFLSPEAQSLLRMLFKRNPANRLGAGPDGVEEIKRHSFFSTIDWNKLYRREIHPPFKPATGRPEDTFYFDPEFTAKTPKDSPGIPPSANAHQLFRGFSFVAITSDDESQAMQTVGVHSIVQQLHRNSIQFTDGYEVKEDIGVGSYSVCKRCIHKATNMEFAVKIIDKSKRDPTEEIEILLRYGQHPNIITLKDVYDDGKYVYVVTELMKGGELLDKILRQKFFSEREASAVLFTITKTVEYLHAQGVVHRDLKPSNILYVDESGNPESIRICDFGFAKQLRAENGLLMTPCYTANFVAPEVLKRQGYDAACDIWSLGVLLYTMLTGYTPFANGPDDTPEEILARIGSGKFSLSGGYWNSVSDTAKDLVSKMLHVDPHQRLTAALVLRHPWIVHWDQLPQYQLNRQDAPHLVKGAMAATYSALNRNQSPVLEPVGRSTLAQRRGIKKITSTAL
T2 sequence (Q15418 whole entry): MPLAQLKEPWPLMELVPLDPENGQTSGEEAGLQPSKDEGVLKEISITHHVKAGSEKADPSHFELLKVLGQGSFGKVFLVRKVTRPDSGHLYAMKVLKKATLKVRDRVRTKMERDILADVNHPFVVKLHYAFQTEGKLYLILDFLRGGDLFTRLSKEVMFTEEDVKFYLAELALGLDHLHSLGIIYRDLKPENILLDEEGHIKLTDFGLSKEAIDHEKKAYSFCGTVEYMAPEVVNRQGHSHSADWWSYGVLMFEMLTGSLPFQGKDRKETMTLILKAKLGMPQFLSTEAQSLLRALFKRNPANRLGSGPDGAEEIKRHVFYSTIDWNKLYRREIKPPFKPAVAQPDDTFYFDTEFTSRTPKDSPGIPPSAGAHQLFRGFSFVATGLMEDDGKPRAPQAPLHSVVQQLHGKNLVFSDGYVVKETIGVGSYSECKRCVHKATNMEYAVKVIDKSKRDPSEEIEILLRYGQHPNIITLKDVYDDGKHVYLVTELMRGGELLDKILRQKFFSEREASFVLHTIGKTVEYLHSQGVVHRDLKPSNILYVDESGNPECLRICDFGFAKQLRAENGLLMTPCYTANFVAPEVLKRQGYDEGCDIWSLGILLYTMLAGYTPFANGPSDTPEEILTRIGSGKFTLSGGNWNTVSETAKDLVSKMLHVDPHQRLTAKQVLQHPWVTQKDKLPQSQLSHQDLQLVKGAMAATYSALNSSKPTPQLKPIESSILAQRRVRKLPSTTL

Row | Compound | IC50 [1] [nM] | IC50 [2] [nM] | inhibitor of RSK1-4 (RSK1-4)
1 | C[C@@H]1C(=O)N(c2cccnc2)c2cnc(Nc3ccc4[nH]ncc4c3)nc2N1C1CCCCC1 [Example 23, (7R)-8-cyclohexyl-2-(1H-indazol-5-ylamino)-7-methyl-5-(pyridin-3-yl)-7,8-dihydropteridin-6(5H)-one] | ≤ 100 | ≤ 100 | 
2 | C[C@@H]1C(=O)N(c2ccsc2)c2cnc(Nc3ccc4[nH]ncc4c3)nc2N1C1CCCCC1 [Example 57, (7R)-8-cyclohexyl-2-(1H-indazol-5-ylamino)-7-methyl-5-(thiophen-3-yl)-7,8-dihydropteridin-6(5H)-one] | ≤ 100 | ≤ 100 | 
3 | CC(C)CCN1c2nc(Nc3cc(F)c(O)c(F)c3)ncc2N(C)C(=O)C1C (centres unmarked) [BI-D1870] |  |  | potent inhibitor
4 | C[C@@H]1C(=O)N(c2cccc(C#N)c2)c2cnc(Nc3ccc4[nH]ncc4c3)nc2N1C1CCCCC1 [Example 29, 3-[(7R)-8-cyclohexyl-2-(1H-indazol-5-ylamino)-7-methyl-6-oxo-7,8-dihydropteridin-5(6H)-yl]benzonitrile] | ≤ 100 | ≤ 100 | 
5 | C[C@@H]1C(=O)N(c2ccccc2)c2cnc(Nc3ccc4[nH]ncc4c3)nc2N1C1CCCC1 [Example 66, (7R)-8-cyclopentyl-2-(1H-indazol-5-ylamino)-7-methyl-5-phenyl-7,8-dihydropteridin-6(5H)-one] | ≤ 100 | ≤ 100 | 
6 | C[C@@H]1C(=O)N(c2cccc(C#N)c2)c2cnc(Nc3ccc4[nH]ncc4c3)nc2N1C1CCC(C)(C)CC1 [Example 207, 3-[(7R)-8-(4,4-dimethylcyclohexyl)-2-(1H-indazol-5-ylamino)-7-methyl-6-oxo-7,8-dihydropteridin-5(6H)-yl]benzonitrile] | ≤ 100 |  | 
7 | (7R)-8-cyclohexyl-2-(1H-indazol-5-ylamino)-7-methyl-5-[4-(morpholin-4-yl)phenyl]-7,8-dihydropteridin-6(5H)-one [compound 126] | ≤ 100 |  | 
8 | C[C@@H]1C(=O)N(c2cccc(C#N)c2)c2cnc(Nc3ccc4[nH]nc(Cl)c4c3)nc2N1C1CCCCC1 [compound 108, 3-[(7R)-2-[(3-chloro-1H-indazol-5-yl)amino]-8-cyclohexyl-7-methyl-6-oxo-7,8-dihydropteridin-5(6H)-yl]benzonitrile] | ≤ 100 |  | 

Continued, in another order:

Row | IC50 [1] [nM] | IC50 [2] [nM] | Compound | inhibitor of RSK1-4 (RSK1-4)
9 | ≤ 100 |  | COc1ccc(N2C(=O)[C@@H](C)N(C3CCOCC3)c3nc(Nc4cc(F)c5[nH]ncc5c4)ncc32)cc1OC [compound 188, (7R)-5-(3,4-dimethoxyphenyl)-2-[(7-fluoro-1H-indazol-5-yl)amino]-7-methyl-8-(tetrahydro-2H-pyran-4-yl)-7,8-dihydropteridin-6(5H)-one] | 
10 | ≤ 100 |  | C[C@@H]1C(=O)N(c2cccc(C#N)c2)c2cnc(Nc3ccc(CO)cc3)nc2N1C1CCCCC1 [compound 171] | 
11 | ≤ 100 |  | C[C@@H]1C(=O)N(c2cccc(C#N)c2)c2cnc(Nc3cnc4[nH]ncc4c3)nc2N1C1CCCCC1 [compound 152, 3-[(7R)-8-cyclohexyl-7-methyl-6-oxo-2-(1H-pyrazolo[3,4-b]pyridin-5-ylamino)-7,8-dihydropteridin-5(6H)-yl]benzonitrile] | 
12 | ≤ 100 |  | C[C@@H]1C(=O)N(c2cccc(C#N)c2)c2cnc(Nc3ccc4[nH]c(=O)oc4c3)nc2N1C1CCCCC1 [compound 149, 3-[(7R)-8-cyclohexyl-7-methyl-6-oxo-2-[(2-oxo-2,3-dihydro-1,3-benzoxazol-6-yl)amino]-7,8-dihydropteridin-(6H)-yl]benzonitrile] | 
13 | ≤ 100 |  | COc1ccc(N2C(=O)[C@@H](C)N(C3CCCCC3)c3nc(Nc4ccc5[nH]c(=O)oc5c4)ncc32)cc1OC [compound 150, (7R)-8-cyclohexyl-5-(3,4-dimethoxyphenyl)-7-methyl-2-[(2-oxo-2,3-dihydro-1,3-benzoxazol-6-yl)amino]-7,8-dihydropteridin-6(5H)-one] | 
